# Legend:
# Assay type in all cases: cell-based, human
# [1] = system: bone marrow organoids; test: TGFβ-induced fibrosis of bone marrow organoids (immunofluorescence, qRT PCR); conditions: for TGFβ-induced collagen deposition / TGFβ-induced αSMA expression: bone marrow organoids stimulated with TGFβ, N=4 and 3 respectively, Kruskal-Wallis with multiple comparisons
# Source text: FIG. 7: Treatment of organoids with TGFβ induced fibrosis of the organoids, modelling bone marrow fibrosis seen in patients. […] Increase of signal in these images is indicative of treatment inducing classic markers of fibrosis. […] Finally, we confirmed the utility of this model to screen for potential inhibitors of bone marrow fibrosis. […] (N=4 and 3 respectively, significance testing with Kruskal-Wallis with multiple comparisons).
# To model myelofibrosis (MF), we treated bone marrow organoids with Transforming Growth Factor β (TGFβ, Peprotech) at various concentrations for 72 hours. Treated organoids were maintained in this media before collection via pasteurette and fixation for immunofluorescence (whole organoids or embedded sections), or centrifugation for RNA extraction and subsequent quantitative Real Time Polymerase Chain Reaction (qRT PCR assessment of changes in gene expression). RNA extraction was performed using the Qiagen RNAEasy micro kit to the manufacturer's instructions.
# qRT-PCR was performed on an Applied Biosystems 7500 Fast Real Time PCR System. Primers were obtained from Integrated DNA Technologies (IDT) as pre-validated PrimeTime qPCR primers. Reactions were prepared from lug of isolated RNA converted to cDNA with the High Capacity cDNA Reverse Transcription Kit (Applied Biosystems) under manufacturer recommended thermal cycling conditions. Synthesised cDNA was diluted 5-fold and stored at −20° C. until required.
# A master mix was prepared for each qPCR reaction which was made up of 10 μl TaqMan® Universal Primer MasterMix (thermos), 1 μl of forward and reverse primers, and 2 μl of cDNA at a final concentration of 5 ng/mL. Calculations for fold changes in expression were performed using the ΔΔCT method, with human GAPDH used as a housekeeping gene, and undifferentiated iPSC used as controls for expression levels.
# Immunofluorescence was performed using a Zeiss LSM880 confocal microscope (25×0.8 LD LCI plan apo 0.8 dual immersion objective). Samples were prepared first by fixation in 10% formalin, before 3×5 min successive washes with PBS. Samples were then blocked overnight in a detergent blocking solution comprised of 2% goat serum (Thermo), 1% Bovine Serum Albumin (BSA) in 50 mL of PBS. 250 μl of Triton X100 and Tween-20 (Sigma) were added, as well as 500 μl sodium deoxycholate (Sigma) to permeabilise samples and encourage antibody preparation. Primary antibody incubations were performed overnight at 4° C., before 4×5-minute successive washes in PBS. Samples were then incubated overnight once more at 4° C. in secondary antibody mixes: DAPI for nuclear labelling, Alexa-488, Alxea-568, and Alexa-647 (Thermo) depending on the species mix of antibodies present.
# [2] = system: MF-patient organoids; test: Bone marrow organoids engrafted with CD34+ cells from patients with myelofibrosis, screen of potential therapies (immunofluorescence of paraffin embedded sections); conditions: organoids seeded with MF patient cells for 14 days, treatment at day 7 post engraftment, 0.1 and 1 uM, vs DMSO treated
# Procedure: FIG. 12: Organoids engrafted with CD34^+ cells from patients with myelofibrosis can be used to screen potential therapies in a patient specific approach. Bone marrow organoids were seeded with cells from patients with myelofibrosis for 14 days in total, with pharmacological interventions staged at day 7 post engraftment. […] Samples were also treated with the inhibitor SB431542, the BET bromodomain inhibitor JQ1, and the current clinical treatment for myelofibrosis ruxolitinib (at 0.1 and 1 uM respectively). […] (B) Representative immunofluorescence imaging of paraffin embedded sections.
# Cells were isolated from cryopreserved peripheral blood or bone marrow mononuclear cells and stained with CellVue Claret Far Red Fluorescent Cell Linker Mini Kit for General Membrane Labeling (Sigma Aldrich, Cat #MINCLARET-1KT) following the instructions provided by the manufacturer. Organoids were seeded with 5000 cells per wells and cultured for 8-14 days in StemPro. On collection day, organoids were fixed for imaging or digested for assessment by flow cytometry or RNA extraction and qRT PCR.
# Sections were blocked using 2% Goat Serum (Thermo Fisher Scientific, Cat #31872) 1% Bovine Serum Albumin (BSA) (Sigma, Cat #A9418) prior to primary antibody labelling with antibody diluted in 1% BSA, sequential PBS washes, and finally secondary labelling with AlexaFluor conjugates. […]
# [3] = system: organoid endothelium; test: Addition of VEGFC to the organoid growth factor cocktail, specialisation of organoid endothelium
# Source text: FIG. 4: Addition of VEGFC induces specialisation of organoid endothelium to resemble bone marrow sinusoidal endothelium. The protocol thus far generated an organoid producing the key lineages of the central human bone marrow. However, bone marrow sinusoidal endothelium, is a highly specialised for regulating haematopoeitic cell behaviours.
# FIG. 5: VEGFC induces development of CD34+ sinusoidal vascular network in organoids. […] Immunofluorescence images show significant staining of the vessels in the VEGFA+C treated sample when compared to VEGFA. (B) Close association of CD41+ megakaryocytes with vessels in the organoids. […] (C) CD41+ megakaryocytes are shown forming pro-platelet extensions in sections of BM organoids.
# Once fully polymerised, 3D cultures were supplemented in Phase III sprouting medium which was comprised of APELII medium supplemented with 5% Foetal Bovine Serum (FBS), 5 U/mL Heparin Sulfate, 50 ng VEGFA, 10 ng each Interleukin 3 (IL3) and Interleukin 6 (IL6), as well as 25 ng each of SCF, Flt3, Thrombopoietin (TPO), Erythropoietin (EPO), Granulocyte Colony Stimulating Factor (G-CSF) (Stem Cell Technologies), FGF2, and BMP4. Cells were maintained in this media formulation until d12, with media changes every 72 hours. From d5 onwards, media changes are performed as 60:40 splits fresh: conditioned medium. […]
molecule,measurement,setting,value
Cc1sc2c(c1C)C(c1ccc(Cl)cc1)=N[C@@H](CC(=O)OC(C)(C)C)c1nnc(C)n1-2 [JQ1],TGFβ-induced collagen deposition,[1],significantly reduced
same,TGFβ-induced αSMA expression,[1],significantly reduced
same,"COL1A1 level, immunofluorescence",[2],significant reductions
same,"αSMA level, immunofluorescence",[2],significantly reduced
NC(=O)c1ccc(-c2nc(-c3ccc4c(c3)OCO4)c(-c3ccccn3)[nH]2)cc1 [SB431542],TGFβ-induced collagen deposition,[1],significantly reduced
same,TGFβ-induced αSMA expression,[1],significantly reduced
TGFβ,"expression of α-smooth muscle actin (α-SMA) and collagen I (COL1A1), staining","[1]; 72-hours of stimulation, compared to an untreated control",increase in the expression
same,canonical fibrosis markers by qRT PCR,[1]; various concentrations of TGFβ for 72 hours,dose dependent increase
"VEGFC: Vascular Endothelial Growth Factor C (Stem Cell Technologies), growth factor supplemented into medium (protein, UniProt P49767 112-227, looked up) Vascular endothelial growth …: AHYNTEILKSIDNEWRKTQCMPREVCIDVGKEFGVATNTFFKPPCVSVYRCGGCCNSEGLQCMNTSTSYLSKTLFEITVPLSQGPKPVTISFANHTSCRCMSKLDVYRQVHSIIRR","CD34 expression of organoid vessels, immunofluorescence",[3]; VEGFA+C treated compared to VEGFA,induces vessels in the organoid that maintain the expression of CD34
same,"expression of adhesion molecules and hematopoietic regulatory factors (VEGFR3, VCAM1, VLA4, FGF4, CXCR4) in endothelial cells","[3]; VEGFC added to VEGFA, compared to VEGFA or VEGFC alone",improved the expression

# From patent US20250145961A1, “GENERATING BONE MARROW ORGANOIDS” (The University of Birmingham, priority 2022, published 2025)
